The values that follow are results of earlier work, collected in US20090047259A1, “Methods of Using the Calcineurin A Variant CnA-beta 1” (priority 2005, published 2009).

The data set relates to calcineurin. The following applies: mdx mice.

Regarding `CC(=O)OCC(=O)[C@@]12N=C(C)O[C@@H]1C[C@H]1[C@@H]3CCC4=CC(=O)C=C[C@]4(C)[C@H]3[C@@H](O)C[C@@]12C` [deflazacort], the “NFAT-dependent genes, including utrophin” value is given as “induced”; the calcineurin activity entry was “activated calcineurin”; the myocyte viability entry is listed as “restored myocyte viability”.
